Laboratory results as given in US20120245123A1, “METHODS FOR IMPROVING BONE HEALTH IN INFANTS USING PREBIOTICS” (ABBOTT LABORATORIES, priority 2011, published 2012).

Legend:
[1] = test system: skeleton of rat offspring (whole body, femur, tibia, lumbar vertebra); assay: pDEXA densitometry of BMD and BMC in rat offspring after maternal diet supplementation; format: in vivo, Sprague-Dawley rats; conditions: for lumbar vertebra BMC with respect to Control group / lumbar vertebra BMD with respect to Control group: adolescent offspring (90-day-old)
Experimental: Fifty 10-week-old pregnant Sprague-Dawley rats at the eleventh day of gestation (Charles Rivers Laboratories, Orleans Cedex, France) are housed under standardized environmental conditions (22° C., relative humidity of 50%, artificial lighting on for 12 hours/day) and are given free access to deionized water during the test period. The rats are randomly divided into five groups of feeding (n=10/group): (1) Control Group (“Control”), who receives a standard purified rodent diet (SPRD); […] (3) Prebiotic group (“Prebiotic”), who receives the SPRD containing 7.5% of the total carbohydrate as inulin-type fructans (Synergy-1®, Orafti, Belgium); […] During their suckling period, the pups receive only the dam's milk. […] Sacrifices of rat pups are carried out at birth, weaning and at the end of the adolescence period. The whole bone mineral density (BMD) and bone mineral content (BMC) of the skeleton are measured at birth and at weaning by using a pDEXA densitometer (Norland Corp., Fort Atkinson, Wis., USA). In adolescent offspring, the determination of BMC and BMD are analyzed in isolated bones (femur, tibia and vertebrae). Determination of the trabecular architecture parameters (trabecular thickness, separation and number), bone length and bone volume fraction (BV/TV) is analyzed by Micro-computed tomography (micro-CT). Micro-CT analysis is carried out by the Bone & Joint Research Group (University of Southampton, UK) and cortical parameters are performed by SCANCO Medical AG (Bruttisellen, Switzerland). DEXA scan is a technique used in the clinical practice for the analysis of bone health. Two main bone properties can be measured by this technique: Bone Mineral Content (BMC) and areal Bone Mineral Density (BMD). BMC determines the mass of mineral present in the whole body or in the selected skeletal region. BMC changes reflect the result of the metabolic “mass” balance between bone formation and bone destruction. BMC represented relative to the projected bone area refers to BMD. BMD represents the […] present in the bone region studied. […] The manufacturer's software for research in small animals calculates BMC and BMD for the isolated bone. Femur is measured from the femoral neck to the knee joint. Tibia is measured from the knee joint to the joint between tibia and calcaneus, also including fibula. […] Results are expressed as mean±SEM, and the probability level at which the differences are considered significant is set at p<0.05. One-way ANOVA is used to evaluate differences attributable to the diet in the different markers, previously testing the homogeneity of variances by Levene's. A posteriori post hoc tests are carried out by the Dunnet test.

[2] = test system: femur, tibia and lumbar vertebra of rat offspring; assay: Micro-CT of trabecular and cortical bone architecture in rat offspring after maternal diet supplementation; format: in vivo, Sprague-Dawley rats
Experimental: Fifty 10-week-old pregnant Sprague-Dawley rats at the eleventh day of gestation (Charles Rivers Laboratories, Orleans Cedex, France) are housed under standardized environmental conditions (22° C., relative humidity of 50%, artificial lighting on for 12 hours/day) and are given free access to deionized water during the test period. The rats are randomly divided into five groups of feeding (n=10/group): (1) Control Group (“Control”), who receives a standard purified rodent diet (SPRD); […] (3) Prebiotic group (“Prebiotic”), who receives the SPRD containing 7.5% of the total carbohydrate as inulin-type fructans (Synergy-1®, Orafti, Belgium); […] During their suckling period, the pups receive only the dam's milk. […] Sacrifices of rat pups are carried out at birth, weaning and at the end of the adolescence period. The whole bone mineral density (BMD) and bone mineral content (BMC) of the skeleton are measured at birth and at weaning by using a pDEXA densitometer (Norland Corp., Fort Atkinson, Wis., USA). In adolescent offspring, the determination of BMC and BMD are analyzed in isolated bones (femur, tibia and vertebrae). Determination of the trabecular architecture parameters (trabecular thickness, separation and number), bone length and bone volume fraction (BV/TV) is analyzed by Micro-computed tomography (micro-CT). Micro-CT analysis is carried out by the Bone & Joint Research Group (University of Southampton, UK) and cortical parameters are performed by SCANCO Medical AG (Bruttisellen, Switzerland). Micro-computed tomography (micro-CT) is a technique for the nondestructive assessment and analysis of the three-dimensional trabecular and cortical bone structural properties. Scanning with micro-CT can be achieved at resolutions as low as 5 μm, allowing for the determination of porosities and subtle modeling and remodeling events of the bone tissue. Furthermore, true three-dimensional image reconstructions permit the assessment of bone microarchitecture as a three dimensional structure, providing critical information to images collected through histomorphometry. In the present Example, femoral, tibia and vertebra cancellous bones are assessed using Metris (XTek) Benchtop 160Xi CT scanner (University of Southampton) and vertebra cortical bone is assessed using MicroCT-40 computed tomography system (Scanco Medical, Basserdorf, Switzerland). […] Micro-CT analysis also allows for the determination of various quality properties of the cortical bone. The bone fragility is influenced not only by the architecture but also by the tissue “quality”. The strength of a bone as an organ depends on the material properties of bone as a tissue. Stiffness, or the resistance of the whole bone to deformation by a load, is a key material property and requires a destructive mechanical technique if measurements are done in vivo. The non-destructive analysis of the volumetric bone mineral density of cortical bone (cortical vBMD) by micro CT has an approximately linear relationship with the stiffness of the cortical bone. Cortical thickness (C.Th) is one of the variables that helps to evaluate the modeling-derived changes provoked by growth. The cortical porosity (C.Sp) reflects the intracortical remodeling in the bone. Remodeling, that occurs in the surfaces of bone, could be enhanced if the pore size becomes larger and, therefore, with the increase of the cortical porosity. An increment on cortical porosity weakens the bone and decreases the bone strength. Results are expressed as mean±SEM, and the probability level at which the differences are considered significant is set at p<0.05. One-way ANOVA is used to evaluate differences attributable to the diet in the different markers, previously testing the homogeneity of variances by Levene's. A posteriori post hoc tests are carried out by the Dunnet test.

[3] = adolescent offspring (90-day-old)

Compound	lumbar vertebra BMC with respect to Control group [1]	lumbar vertebra BMD with respect to Control group [1]	vertebra BV/TV enhanced in comparison with Control group [2, 3]	vertebra cortical porosity, effect [2, 3]	vertebra cortical vBMD, effect [2, 3]	vertebra trabecular separation respective to Control group [2, 3]	vertebra trabecular thickness enhanced in comparison with Control group [2, 3]	vertebrae cortical thickness, effect [2, 3]	trabecular number of femur and tibia respective to Control group ([2]; pups at delivery)	trabecular separation of femur and tibia respective to Control group ([2]; pups at delivery)	trabecular thickness of femur and tibia respective to Control group ([2]; pups at delivery)	increase in vertebra trabecular thickness respective to Control group ([2]; pups at weaning)	vertebra BV/TV ratio respective to Control group ([2]; pups at weaning)	vertebra trabecular separation respective to Control group ([2]; pups at weaning)	whole body BMC relative to Control group ([1]; pups at weaning)	cortical features of the vertebra [2, 3]	vertebra BV/TV, effect versus Control group [2, 3]	vertebra trabecular thickness, effect versus Control group [2, 3]
O=C([O-])[O-].[Ca+2] [Calcium, calcium carbonate]	no differences	no differences	22%	decrease	increase	significant decrease	17%	without significantly affecting	greater	decrease in the trabecular separation, although statistical differences are not achieved	lower	~30%	statistically different	statistically different	–	–	–	–
Vitamin D	no differences	no differences	–	–	–	–	–	–	–	–	–	–	–	–	lower	does not show any improvement	No effect	No effect
